We go through 26 compounds from patent US7618990B2, “Oxazolidone derivatives as PR modulators” (Wyeth, priority 2006, dated 2009).

Broadly, the IC50 is the concentration at which inhibition is half-maximal. Broadly, the melting point is the temperature of the solid-liquid transition. The term inhibition denotes the share of the control response that was lost under treatment.

Data set [1] deals with alkaline phosphatase activity in T47D cells. Description: Effects of progestins and antiprogestins on alkaline phosphatase activity in T47D cells (antagonist mode). The conditions noted are these: Homo sapiens, in the presence of 1 nM progesterone, read-out: T47D Alkaline Phosphatase Activity IC50 (nM) or % inhibition; for IC50: 24 h; for inhibition at 3 µM: % inhibition at 3000 nM. Type of data set: cell-based. As to the method:
(1) Effects of Progestins and Antiprogestins on Alkaline Phosphatase Activity in T47D Cells
PURPOSE: To identify progestins or antiprogestins by determining a compound's effect on alkaline phosphatase activity in T47D cells.
Culture Medium: • DMEM:F12 (1:1) (GIBCO, BRL) supplemented with 5% (v/v) charcoal stripped fetal bovine serum (not heat-inactivated), 100 U/mL penicillin, 100 μg/mL streptomycin, and 2 mM the GlutaMax™ reagent (GIBCO, BRL).
Alkaline Phosphatase Assay Buffer: • I. 0.1M Tris-HCl, pH 9.8, containing 0.2% the Triton® X-100 reagent • II. 0.1M Tris-HCl, pH 9.8, containing 4 mM p-nitrophenyl phosphate (Sigma). B. Cell Culture and Treatment:
Frozen T47D cells were thawed in a 37° C. water bath and diluted to 280,000 cells/mL in culture medium. To each well in a 96-well plate (Falcon, Becton Dickinson Labware), 180 μL of diluted cell suspension was added.
Twenty μL of reference or test compounds diluted in the culture medium was then added to each well. When testing for progestin antagonist activity, reference antiprogestins or test compounds were added in the presence of 1 nM progesterone. The cells were incubated at 37° C. in a 5% CO2/humidified atmosphere for 24 h.
NOTE: For high throughput screening, one concentration of each compound was tested at 0.3 μg/mL. Based on an average molecular weight of 300 g/mol for the compounds in the library, the concentration was approximately 1 μM. Subsequently, active compounds were tested in dose response assays to determine EC50 and IC50. C. Alkaline Phosphatase Enzyme Assay:
At the end of treatment, the medium was removed from the plate. Fifty μL of assay buffer I was added to each well. The plates were shaken in a titer plate shaker for 15 min. Then 150 μL of assay buffer II was added to each well. Optical density measurements were taken at 5 min intervals for 30 min at a test wavelength of 405 nm.
For reference and test compounds, a dose response curve was generated for dose (X-axis) vs. the rate of enzyme reaction (slope) (Y-axis). Square root-transformed data was used for analysis of variance and nonlinear dose response curve fitting for both agonist and antagonist modes. Huber weighting was used to down-weight the effects of outliers. EC50 or IC50 values were calculated from the retransformed values. JMP software (SAS Institute, Inc.) was used for both one-way analysis of variance and non-linear dose response analysis in both single dose and dose response studies.
Progesterone and trimegestone were reference progestins and RU486 was the reference antiprogestin. All reference compounds were run in full dose response curves and the EC50 and IC50 values were calculated.

`CCC1(CC)COC(=O)N1c1nc(-c2ccc(C#N)cc2)cs1` [Example 19, 4-[2-(4,4-Diethyl-2-oxo-1,3-oxazolidin-3-yl)-1,3-thiazol-4-yl]benzonitrile] came in with a melting point of 145 to 147 °C. The IC50 in data set [1] was 0.45 nM.
For `CCC[C@@H]1COC(=O)N1c1nc(-c2ccc(Br)cc2)cs1` [Example 20, (4R)-3-[4-(4-Bromophenyl)-1,3-thiazol-2-yl]-4-propyl-1,3-oxazolidin-2-one] the same measures were 114 to 116 °C and 70.2 nM.
For `CCC[C@@H]1COC(=O)N1c1nc(-c2ccc(C#N)cc2)cs1` [Example 21, 4-{2-[(4R)-2-oxo-4-propyl-1,3-oxazolidin-3-yl]-1,3-thiazol-4-yl}benzonitrile] the same measures were 131 to 133 °C and 22.5 nM.
As for `CCC[C@H]1COC(=O)N1c1nc(-c2ccc(Br)cc2)cs1` [Example 22, (4S)-3-[4-(4-Bromophenyl)-1,3-thiazol-2-yl]-4-propyl-1,3-oxazolidin-2-one], the melting point lay within 116 to 118 °C. Further, the IC50 in data set [1] was determined as 64.3 nM.
With `O=C1OCC2(CC2)N1c1nc(-c2ccc(Br)cc2)cs1` [Example 24, 4-[4-(4-Bromophenyl)-1,3-thiazol-2-yl]-6-oxa-4-azaspiro[2.4]heptane-5-one], the melting point lay in the range of 201 to 202 °C. Besides, the IC50 in data set [1] is 292 nM.
The corresponding values for `N#Cc1ccc(-c2csc(N3C(=O)OCC34CC4)n2)cc1` [Example 25, 4-[2-(5-oxo-6-oxa-4-azaspiro[2.4]hept-4-yl)-1,3-thiazol-4-yl]benzonitrile] are 219 to 221 °C and 21.6 nM.
The corresponding values for `O=C1OCCN1c1nc(-c2ccc(Br)cc2)cs1` [Example 28, 3-[4-(4-Bromophenyl)-1,3-thiazol-2-yl]-1,3-oxazolidin-2-one] are 197 to 199 °C and 158 nM.
For `CCCC1COC(=O)N1c1nc(-c2ccc(Br)cc2)cs1` (stereo not shown) [Example 29, 3-[4-(4-Bromophenyl)-1,3-thiazol-2-yl]-4-propyl-1,3-oxazolidin-2-one] the same measures were 156 to 157 °C and 88.8 nM.
Consider `CCCCC1COC(=O)N1c1nc(-c2ccc(Br)cc2)cs1` (stereo not shown) [Example 30, 3-[4-(4-Bromophenyl)-1,3-thiazol-2-yl]-4-butyl-1,3-oxazolidin-2-one], for which the melting point lay within 153 to 155 °C. Also, the inhibition at 3 µM in data set [1] was found to be 100%.
On to `CC1CN(c2nc(-c3ccc(Br)cc3)cs2)C(=O)O1` (stereo not shown) [Example 31, 3-[4-(4-Bromophenyl)-1,3-thiazol-2-yl]-5-methyl-1,3-oxazolidin-2-one], for which the melting point was 191 to 193 °C. Also, the IC50 in data set [1] came to 68.8 nM.
Turning to `CCC1CN(c2nc(-c3ccc(Br)cc3)cs2)C(=O)O1` (stereo not shown) [Example 32, 3-[4-(4-Bromophenyl)-1,3-thiazol-2-yl]-5-ethyl-1,3-oxazolidin-2-one], the melting point lay in the range of 141 to 142 °C. The IC50 in data set [1] was determined as 407 nM.
For `O=C1OCCCN1c1nc(-c2ccc(Br)cc2)cs1` [Example 33, 3-[4-(4-Bromophenyl)-1,3-thiazol-2-yl]-1,3-oxazinan-2-one] the same measures were 225 to 227 °C and 238 nM.
The corresponding values for `CC1(C)COC(=O)N(c2nc(-c3ccc(Br)cc3)cs2)C1` [Example 39, 3-[4-(4-Bromophenyl)-1,3-thiazol-2-yl]-5,5-dimethyl-1,3-oxazinan-2-one] are 169 to 171 °C and 1370 nM.
Compound `CC(C)C1COC(=O)N1c1nc(-c2ccc(C#N)cc2)cs1` (stereo not shown) [Example 43, 4-[2-(4-Isopropyl-2-oxo-1,3-oxazolidin-3-yl)-1,3-thiazol-4-yl]benzonitrile] registered a melting point of 126 to 128 °C. Further, the IC50 in data set [1] amounted to 21.9 nM.
For `N#Cc1ccc(-c2csc(N3C(=O)OC[C@H]3Cc3ccccc3)n2)cc1` [Example 44, 4-{2-[(4R)-4-Benzyl-2-oxo-1,3-oxazolidin-3-yl]-1,3-thiazol-4-yl}benzonitrile] the same measures were 174 to 176 °C and 191 nM.
The corresponding values for `N#Cc1ccc(-c2csc(N3C(=O)OC[C@H]3c3ccccc3)n2)cc1` [Example 45, 4-{2-[(4R)-2-Oxo-4-phenyl-1,3-oxazolidin-3-yl]-1,3-thiazol-4-yl}benzonitrile] are 243 to 245 °C and 166 nM.
The corresponding values for `N#Cc1ccc(-c2csc(N3C(=O)OC[C@@H]3c3ccccc3)n2)cc1` [Example 46, 4-{2-[(4S)-2-Oxo-4-phenyl-1,3-oxazolidin-3-yl]-1,3-thiazol-4-yl}benzonitrile] are 242 to 244 °C and 194 nM.
In turn, `N#Cc1ccc(-c2csc(N3C(=O)OCC34CCCC4)n2)cc1` [Example 47, 4-[2-(2-Oxo-3-oxa-1-azaspiro[4.4]non-1-yl)-1,3-thiazol-4-yl]benzonitrile] came in with a melting point of 196 to 198 °C. Moreover, in data set [1], the IC50 amounted to 45.4 nM.
The compound `CC1(C)COC(=O)N1c1nc(-c2cccc(C#N)c2)cs1` [Example 52, 3-[2-(4,4-dimethyl-2-oxo-1,3-oxazolidin-3-yl)-1,3-thiazol-4-yl]benzonitrile] displayed a melting point of 181 to 183 °C. Also, the inhibition at 3 µM in data set [1] came out at 95%.
`CCC1(CC)COC(=O)N1c1nc(-c2ccc(C#N)cc2)c(F)s1` [Example 53, 4-[2-(4,4-Diethyl-2-oxo-1,3-oxazolidin-3-yl)-5-fluoro-1,3-thiazol-4-yl]benzonitrile] showed a melting point of 151 to 153 °C. Moreover, the inhibition at 0.003 µM in data set [1] (% inhibition at 3 nM) was found to be 40%.
`N#Cc1ccc(-c2csc(-n3c(=O)oc4ccccc43)n2)cc1` [Example 54, 4-[2-(2-Oxo-1,3-benzoxazol-3(2H)-yl)-1,3-thiazol-4-yl]benzonitrile] gave a melting point of 244 to 245 °C. In data set [1], the inhibition at 3 µM was found to be 50%.
With `N#Cc1ccc(-c2nc(N3C(=O)OCC34CC4)sc2F)cc1` [Example 55, 4-[5-Fluoro-2-(5-oxo-6-oxa-4-azaspiro[2.4]hept-4-yl)-1,3-thiazol-4-yl]benzonitrile], the melting point lay in the range of 222 to 224 °C. Besides, the IC50 in data set [1] was found to be 41.9 nM.
Compound `Cc1sc(N2C(=O)OCC2(C)C)nc1-c1ccc(Br)cc1` [Example 56, 3-[4-(4-Bromophenyl)-5-methyl-1,3-thiazol-2-yl]-4,4-dimethyl-1,3-oxazolidin-2-one] showed a melting point of 175 to 176.5 °C. For the same compound, in data set [1], the 50% inhibitory concentration (IC50) was found to be 437 nM.
Regarding `Cc1sc(N2C(=O)OCC2(C)C)nc1-c1ccc(C#N)cc1` [Example 57, 4-[2-(4,4-Dimethyl-2-oxo-1,3-oxazolidin-3-yl)-5-methyl-1,3-thiazol-4-yl]benzonitrile], the melting point is 192.5 to 193 °C. Further, in data set [1], the half-inhibitory concentration (IC50) amounted to 101 nM.
The corresponding values for `CC1(C)COC(=O)N1c1nc(-c2sc(C#N)cc2Br)cs1` [Example 59, 4-Bromo-5-[2-(4,4-dimethyl-2-oxo-1,3-oxazolidin-3-yl)-1,3-thiazol-4-yl]thiophene-2-carbonitrile] are 230 to 234 °C and 99 nM.
For `CC1(C)COC(=O)N1c1nc(-c2ccc(C#N)s2)cs1` [Example 60, 5-[2-(4,4-dimethyl-2-oxo-1,3-oxazolidin-3-yl)-1,3-thiazol-4-yl]thiophene-2-carbonitrile] the same measures were 250 to 251 °C and 43.5 nM.
